{"source": "patent US10189842B2", "about": "(Agency for Science, Technology and Research, priority 2013, dated 2019)", "system": "HEK293-STF3A cells", "assay": "STF3A assay (luciferase reporter)", "format": "cell-based, Human", "conditions": "Homo sapiens, 24 h, 1 day of treatment", "summary_of_the_method": "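HEK293 cells carrying the STF reporter and expressing Wnt3A, seeded 2×10^4 per well overnight, then treated 1 day with compound at final 50 μM to 1.5 nM. Luciferase activity read by luminescence after Steady-Glo reagent, 10 min at room temperature.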", "data": [{"molecule": "Cc1ccc(-c2ccc(NC(=O)CCC(=O)N3CCCn4nc(C)cc43)cn2)cn1", "note": "[Compound 113, 4-(2-methyl-6,7-dihydropyrazolo[1,5-a]pyrimidin-4(5H)-yl)-N-(6′-methyl-[2,3′-bipyridin]-5-yl)-4-oxobutanamide]", "values": [{"measurement": "IC50", "result": "< 100", "unit": "nM"}]}, {"molecule": "Cc1cc2n(n1)CCCN2C(=O)CCC(=O)Nc1ccc(-c2cncc(Cl)c2)cn1", "note": "[Compound 114, N-(5′-chloro-[3,3′-bipyridin]-6-yl)-4-(2-methyl-6,7-dihydropyrazolo[1,5-a]pyrimidin-4(5H)-yl)-4-oxobutanamide]", "values": [{"measurement": "IC50", "result": "< 100", "unit": "nM"}]}, {"molecule": "Cc1cc2n(n1)CCCN2C(=O)CCC(=O)Nc1ccc(-c2cncc(F)c2)cn1", "note": "[Compound 115, N-(5′-fluoro-[3,3′-bipyridin]-6-yl)-4-(2-methyl-6,7-dihydropyrazolo[1,5-a]pyrimidin-4(5H)-yl)-4-oxobutanamide]", "values": [{"measurement": "IC50", "result": "< 100", "unit": "nM"}]}, {"molecule": "Cc1cncc(-c2ccc(NC(=O)CCC(=O)N3CCCn4nc(C)cc43)nc2)c1", "note": "[Compound 116, 4-(2-methyl-6,7-dihydropyrazolo[1,5-a]pyrimidin-4(5H)-yl)-N-(5′-methyl-[3,3′-bipyridin]-6-yl)-4-oxobutanamide]", "values": [{"measurement": "IC50", "result": "< 100", "unit": "nM"}]}, {"molecule": "Cc1cc2n(n1)CCCN2C(=O)CCC(=O)Nc1ccc(-c2cncc(N)c2)cn1", "note": "[Compound 117]", "values": [{"measurement": "IC50", "result": "< 100", "unit": "nM"}]}, {"molecule": "Cc1cc2n(n1)CCCN2C(=O)CCC(=O)Nc1ccc(-c2cncc(C(F)(F)F)c2)cn1", "note": "[Compound 118, 4-(2-methyl-6,7-dihydropyrazolo[1,5-a]pyrimidin-4(5H)-yl)-4-oxo-N-(5′-(trifluoromethyl)-[3,3′-bipyridin]-6-yl)butanamide]", "values": [{"measurement": "IC50", "result": "< 100", "unit": "nM"}]}, {"molecule": "Cc1cc2n(n1)CCCN2C(=O)CCC(=O)Nc1cc(C)c(-c2cccnc2)cn1", "note": "[Compound 119, N-(4-methyl-3,3′-bipyridin-6-yl)-4-(2-methyl-6,7-dihydropyrazolo[1,5-a]pyrimidin-4(5H)-yl)-4-oxobutanamide]", "values": [{"measurement": "IC50", "result": "< 5000", "unit": "nM"}]}, {"molecule": "Cc1cncc(-c2cnc(NC(=O)CCC(=O)N3CCCn4nc(C)cc43)cc2C)c1", "note": "[Compound 120, N-(4,5′-dimethyl-3,3′-bipyridin-6-yl)-4-(2-methyl-6,7-dihydropyrazolo[1,5-a]pyrimidin-4(5H)-yl)-4-oxobutanamide]", "values": [{"measurement": "IC50", "result": "< 5000", "unit": "nM"}]}, {"molecule": "Cc1ccc(-c2ccc(NC(=O)CCC(=O)N3CCCn4nc(C)cc43)nc2)cn1", "note": "[Compound 121, N-(6′-methyl-3,3′-bipyridin-6-yl)-4-(2-methyl-6,7-dihydropyrazolo[1,5-a]pyrimidin-4(5H)-yl)-4-oxobutanamide]", "values": [{"measurement": "IC50", "result": "< 100", "unit": "nM"}]}, {"molecule": "Cc1cc2n(n1)CCCN2C(=O)CCC(=O)Nc1cnc(-c2cncc(F)c2)cn1", "note": "[Compound 122, N-(5-(5-fluoropyridin-3-yl)pyrazin-2-yl)-4-(2-methyl-6,7-dihydropyrazolo[1,5-a]pyrimidin-4(5H)-yl)-4-oxobutanamide]", "values": [{"measurement": "IC50", "result": "< 100", "unit": "nM"}]}, {"molecule": "Cc1cc2n(n1)CCCN2C(=O)CCC(=O)Nc1cnc(-c2cccc(F)c2)cn1", "note": "[Compound 123, N-(5-(3-fluorophenyl)pyrazin-2-yl)-4-(2-methyl-6,7-dihydropyrazolo[1,5-a]pyrimidin-4(5H)-yl)-4-oxobutanamide]", "values": [{"measurement": "IC50", "result": "< 100", "unit": "nM"}]}, {"molecule": "Cc1cncc(-c2cnc(NC(=O)CCC(=O)N3CCCn4nc(C)cc43)cn2)c1", "note": "[Compound 124, 4-(2-methyl-6,7-dihydropyrazolo[1,5-a]pyrimidin-4(5H)-yl)-N-(5-(5-methylpyridin-3-yl)pyrazin-2-yl)-4-oxobutanamide]", "values": [{"measurement": "IC50", "result": "< 100", "unit": "nM"}]}, {"molecule": "Cc1cc2n(n1)CCCN2C(=O)CCC(=O)Nc1cnc(-c2cccnc2)c(C)n1", "note": "[Compound 125, N-(6-methyl-5-(pyridin-3-yl)pyrazin-2-yl)-4-(2-methyl-6,7-dihydropyrazolo[1,5-a]pyrimidin-4(5H)-yl)-4-oxobutanamide]", "values": [{"measurement": "IC50", "result": "> 10000", "unit": "nM"}]}, {"molecule": "Cc1cccc(-c2cnc(NC(=O)CCC(=O)N3CCCn4nc(C)cc43)cn2)c1", "note": "[Compound 126, 4-(2-methyl-6,7-dihydropyrazolo[1,5-a]pyrimidin-4(5H)-yl)-4-oxo-N-(5-(m-tolyl)pyrazin-2-yl)butanamide]", "values": [{"measurement": "IC50", "result": "< 100", "unit": "nM"}]}]}
